According to patent US10457655B2, “Compounds and compositions for inhibition of FASN” (FORMA Therapeutics, Inc., priority 2013, dated 2019):

What was measured:
[1] = tested on: PC3 cells; assay: Cell Proliferation Assays for FASN Inhibitors (PC3 cells, MTT); type: cell-based; conditions: Homo sapiens, PC-3, 96 h, read-out: IC50 (uM) < 0.5, 10% lipid reduced serum, 4 days, Table 3-1
In short: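 PC3 cells seeded overnight, then exposed to compound for 4 days at 37 °C in F12K with 10% lipid-reduced serum, 0.1% final DMSO. Viability read by MTT; IC50 from four-parameter logistic fit of dose–response.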

[2] = biological target: FASN enzyme (Homo sapiens, UniProt P49327); assay: Enzymatic Assay for FASN Inhibitors; type: biochemical
In short: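 40 nM FASN preincubated with compound 60 min at 25° C in HEPES pH 7.3 buffer with 0.04% Triton X-100. Then 20 μM acetyl-CoA, 60 μM malonyl-CoA and 100 μM NADPH added for 90 min, quenched with CPM thiol probe; fluorescence 360/530 nm, IC50 by four-parameter fit.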

Chain of FASN enzyme (P49327 whole entry): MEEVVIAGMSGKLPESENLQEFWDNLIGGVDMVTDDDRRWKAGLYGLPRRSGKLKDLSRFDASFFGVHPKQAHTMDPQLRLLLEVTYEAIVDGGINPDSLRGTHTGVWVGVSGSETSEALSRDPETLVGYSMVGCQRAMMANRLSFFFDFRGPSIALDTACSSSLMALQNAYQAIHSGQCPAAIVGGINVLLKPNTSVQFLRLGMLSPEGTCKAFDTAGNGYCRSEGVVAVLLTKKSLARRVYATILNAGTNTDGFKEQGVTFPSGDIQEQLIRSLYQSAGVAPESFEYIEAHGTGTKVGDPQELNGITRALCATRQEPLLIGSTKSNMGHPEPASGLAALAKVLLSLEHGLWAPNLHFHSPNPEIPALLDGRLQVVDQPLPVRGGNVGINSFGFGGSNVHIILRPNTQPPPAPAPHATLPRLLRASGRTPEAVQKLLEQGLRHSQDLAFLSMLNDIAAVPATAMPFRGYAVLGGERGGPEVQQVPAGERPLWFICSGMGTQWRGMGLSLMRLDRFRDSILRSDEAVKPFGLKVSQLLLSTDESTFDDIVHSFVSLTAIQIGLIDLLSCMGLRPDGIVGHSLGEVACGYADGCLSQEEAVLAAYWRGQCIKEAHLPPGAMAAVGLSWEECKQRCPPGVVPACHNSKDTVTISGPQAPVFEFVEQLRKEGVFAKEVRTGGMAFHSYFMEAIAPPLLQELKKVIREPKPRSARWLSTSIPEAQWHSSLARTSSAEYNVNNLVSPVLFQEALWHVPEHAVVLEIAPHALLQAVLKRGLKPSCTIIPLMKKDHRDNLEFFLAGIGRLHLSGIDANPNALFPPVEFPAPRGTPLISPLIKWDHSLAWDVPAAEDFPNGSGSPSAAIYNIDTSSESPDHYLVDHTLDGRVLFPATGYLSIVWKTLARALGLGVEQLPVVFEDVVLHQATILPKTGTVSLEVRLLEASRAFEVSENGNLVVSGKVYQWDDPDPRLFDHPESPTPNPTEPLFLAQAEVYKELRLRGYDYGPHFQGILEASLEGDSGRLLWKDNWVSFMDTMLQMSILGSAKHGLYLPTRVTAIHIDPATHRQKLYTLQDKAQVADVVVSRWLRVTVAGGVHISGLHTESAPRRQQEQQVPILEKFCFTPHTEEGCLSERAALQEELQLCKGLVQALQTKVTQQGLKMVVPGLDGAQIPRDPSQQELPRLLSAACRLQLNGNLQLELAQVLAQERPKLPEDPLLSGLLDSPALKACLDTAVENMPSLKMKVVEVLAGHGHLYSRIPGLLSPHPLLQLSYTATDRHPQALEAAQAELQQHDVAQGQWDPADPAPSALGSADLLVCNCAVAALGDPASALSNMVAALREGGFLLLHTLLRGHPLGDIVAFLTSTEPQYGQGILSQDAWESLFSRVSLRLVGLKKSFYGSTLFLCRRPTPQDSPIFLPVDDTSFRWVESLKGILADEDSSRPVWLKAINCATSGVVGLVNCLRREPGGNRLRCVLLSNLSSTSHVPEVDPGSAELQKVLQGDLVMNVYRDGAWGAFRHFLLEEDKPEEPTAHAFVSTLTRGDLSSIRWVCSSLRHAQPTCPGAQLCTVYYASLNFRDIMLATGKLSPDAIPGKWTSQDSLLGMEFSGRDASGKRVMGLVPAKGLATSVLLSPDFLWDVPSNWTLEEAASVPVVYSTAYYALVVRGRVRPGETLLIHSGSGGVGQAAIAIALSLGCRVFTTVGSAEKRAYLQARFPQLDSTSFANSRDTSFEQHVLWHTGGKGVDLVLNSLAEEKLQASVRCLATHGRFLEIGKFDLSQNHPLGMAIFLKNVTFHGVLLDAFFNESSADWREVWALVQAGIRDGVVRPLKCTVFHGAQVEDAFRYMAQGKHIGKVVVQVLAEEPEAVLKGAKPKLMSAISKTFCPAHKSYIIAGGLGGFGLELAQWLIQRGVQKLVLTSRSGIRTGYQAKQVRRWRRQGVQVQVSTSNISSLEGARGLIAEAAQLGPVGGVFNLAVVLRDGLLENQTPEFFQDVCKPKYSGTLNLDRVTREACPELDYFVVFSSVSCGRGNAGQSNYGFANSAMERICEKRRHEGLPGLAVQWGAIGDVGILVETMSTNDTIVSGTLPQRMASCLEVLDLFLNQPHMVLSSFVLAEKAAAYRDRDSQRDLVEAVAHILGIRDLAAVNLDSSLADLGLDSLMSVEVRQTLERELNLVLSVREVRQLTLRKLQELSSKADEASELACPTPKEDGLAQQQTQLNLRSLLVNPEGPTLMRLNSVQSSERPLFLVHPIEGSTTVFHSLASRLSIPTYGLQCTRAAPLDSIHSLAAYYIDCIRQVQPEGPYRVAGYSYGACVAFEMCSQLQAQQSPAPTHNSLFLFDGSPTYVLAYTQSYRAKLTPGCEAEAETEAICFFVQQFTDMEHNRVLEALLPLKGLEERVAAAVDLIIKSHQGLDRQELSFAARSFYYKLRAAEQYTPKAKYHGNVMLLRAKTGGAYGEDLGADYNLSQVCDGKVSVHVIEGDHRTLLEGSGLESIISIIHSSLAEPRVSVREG

| SMILES | IC50 [1] [µM] | IC50 [2] [nM] |
| --- | --- | --- |
| O=C(c1ccc(-c2cc3ccccn3n2)cc1)N1CCN(C(=O)C2(O)CC2)CC1 | < 0.5 | < 500 |
| O=C(c1ccc(-c2ccc3cnccc3c2)cc1)N1CCN(C(=O)C2(O)CC2)CC1 [1-[(4-{[4-(isoquinolin-6-yl)phenyl]carbonyl}piperazin-1-yl)carbonyl]cyclopropan-1-ol] | < 0.5 | < 500 |
| O=C(c1ccc(-c2ccc3ccccc3n2)c(F)c1F)N1CCN(C(=O)C2(O)CC2)CC1 [1-[(4-{[2,3-difluoro-4-(quinolin-2-yl)phenyl]carbonyl}piperazin-1-yl)carbonyl]cyclopropan-1-ol] | < 0.5 | < 500 |
| Cc1cc(C(=O)N2CCN(C(=O)C3(O)CC3)CC2)ccc1-c1ccc2c(ccn2C)c1 [1-[(4-{[3-methyl-4-(1-methyl-1H-indol-5-yl)phenyl]carbonyl}piperazin-1-yl)carbonyl]cyclopropan-1-ol] | < 0.5 | < 500 |
| O=C(c1ccc(-c2nccc3ccccc23)cc1)N1CCN(C(=O)C2(O)CC2)CC1 [1-[(4-{[4-(isoquinolin-1-yl)phenyl]carbonyl}piperazin-1-yl)carbonyl]cyclopropan-1-ol] | < 0.5 | < 500 |
| O=C(c1ccc(-c2nc3ccccc3o2)cc1)N1CCN(C(=O)C2(O)CC2)CC1 [1-[(4-{[4-(1,3-benzoxazol-2-yl)phenyl]carbonyl}piperazin-1-yl)carbonyl]cyclopropan-1-ol] | < 0.5 | < 500 |
| N#Cc1c[nH]c2ccc(-c3ccc(C(=O)N4CCN(C(=O)C5(O)CC5)CC4)cc3Cl)cc12 | < 0.5 | < 500 |
| O=C(c1ccc(-c2ccc3ncsc3c2)cc1)N1CCN(C(=O)C2(O)CC2)CC1 [1-[(4-{[4-(1,3-benzothiazol-6-yl)phenyl]carbonyl}piperazin-1-yl)carbonyl]cyclopropan-1-ol] | < 0.5 | < 500 |
| Cn1ccc2cc(-c3ccc(C(=O)N4CCN(C(=O)C5(O)CC5)CC4)c(F)c3)ccc21 [1-[(4-{[2-fluoro-4-(1-methyl-1H-indol-5-yl)phenyl]carbonyl}piperazin-1-yl)carbonyl]cyclopropan-1-ol] | < 0.5 | < 500 |
